Measured values from the CheMixHub drug solubility set.

Assay: xn = mol fraction of the nth substance listed, in the solute-free solvent

Cl.c1ccc2c(CC3=NCCN3)cccc2c1 + CO + CCOC(C)=O
solubility (g/100 g solution)
Conditions	278.15 K	283.15 K	288.15 K	293.15 K	298.15 K	303.15 K	308.15 K	313.15 K	318.15 K	323.15 K
x2 = 0.234	0.0388	0.0424	0.0488	0.0564	0.0653	0.0746	0.0856	0.0943	0.107	0.124
x2 = 0.4074	0.414	0.448	0.483	0.536	0.585	0.641	0.701	0.757	0.832	0.9
x2 = 0.5409	1.28	1.46	1.64	1.85	2.05	2.3	2.54	2.8	3.09	3.43
x2 = 0.647	2.35	2.79	3.18	3.62	4.14	4.79	5.44	6	6.94	7.75
x2 = 0.7342	2.92	3.55	4.1	4.91	5.54	6.21	7.05	7.84	8.87	9.75
x2 = 0.8048	4.02	4.75	5.56	6.6	7.64	8.62	10.1	11.2	12.5	14
x2 = 0.8651	4.96	5.72	6.88	8.2	9.51	11.3	12.9	14.3	15.7	17.4
x2 = 0.9166	5.87	6.98	8.13	9.66	11.2	13.1	15	17.1	19	20.8
x2 = 0.9612	6.37	7.47	8.84	10.6	12.3	14.4	16.6	18.9	21.1	23.5

O=CC(O)C(O)C(O)CO (centres undefined) + CO + ClCCl
solubility (g/100 g solution)
Conditions	x2 = 0.1	x2 = 0.2	x2 = 0.3	x2 = 0.4	x2 = 0.5	x2 = 0.6	x2 = 0.7	x2 = 0.8	x2 = 0.9
283.15 K	0.097	0.564	1.19	1.64	2.52	3.8	4.89	6.81	9.89
288.15 K	0.17	0.673	1.33	1.81	2.86	4.63	5.87	8.86	12.6
293.15 K	0.204	0.696	1.5	2.4	3.52	5.59	7.17	10.8	15.8
298.15 K	0.281	0.774	1.78	2.73	4.3	6.87	9.1	13.4	20.1
303.15 K	0.286	0.82	2.17	3.22	5.29	9.18	12.7	18.3	25.3

CCc1cccc2c3c([nH]c12)C(CC)(CC(=O)O)OCC3 (centres undefined) + COC(C)=O + CCCCCC
solubility (g/100 g solution)
Conditions	278.15 K	283.15 K	288.15 K	293.15 K	298.15 K	303.15 K	308.15 K	313.15 K	318.15 K	323.15 K
x2 = 0.2255	1.11	1.18	1.26	1.35	1.42	1.5	1.61	1.69	1.76	1.86
x2 = 0.4369	3.55	3.98	4.43	4.96	5.39	5.87	6.35	6.88	7.34	7.96
x2 = 0.6357	4.26	5.33	6.41	7.66	8.86	9.93	11.4	12.9	14.1	15.7
x2 = 0.8229	10.8	12.1	13.6	15.1	16.7	18.3	20.2	22.4	24.4	26

Cl.c1ccc2c(CC3=NCCN3)cccc2c1 + COCCO + CC(C)O
solubility (g/100 g solution)
Conditions	278.15 K	283.15 K	288.15 K	293.15 K	298.15 K	303.15 K	308.15 K	313.15 K	318.15 K	323.15 K
x2 = 0.08067	0.345	0.391	0.44	0.493	0.56	0.628	0.702	0.778	0.867	0.926
x2 = 0.1649	0.526	0.602	0.687	0.775	0.873	0.969	1.09	1.19	1.32	1.42
x2 = 0.2529	0.638	0.792	0.944	1.03	1.25	1.45	1.56	1.82	1.98	2.32
x2 = 0.3449	0.753	0.926	1.09	1.32	1.53	1.8	2.05	2.36	2.58	2.87
x2 = 0.4412	1.03	1.18	1.29	1.51	1.68	1.89	2.09	2.36	2.6	2.87
x2 = 0.5422	1.45	1.58	1.73	1.92	2.17	2.43	2.69	2.97	3.24	3.61
x2 = 0.6482	1.84	2.01	2.28	2.46	2.77	2.98	3.37	3.59	3.82	4.19
x2 = 0.7595	2.35	2.52	2.78	3.06	3.34	3.67	4.04	4.45	4.93	5.36
x2 = 0.8767	2.49	2.71	3.03	3.29	3.7	3.95	4.34	4.64	4.96	5.33

Cl.NC(C=O)C(O)C(O)C(O)CO (centres undefined) + O + CCO
solubility (g/100 g solution)
Conditions	283.15 K	288.15 K	293.15 K	298.15 K	303.15 K	308.15 K	313.15 K	318.15 K	323.15 K
x2 = 0.4	0.614	0.658	0.736	0.832	0.899	0.944	1.08	1.18	1.27
x2 = 0.5	1.17	1.37	1.55	1.68	1.79	2.1	2.32	2.52	2.83
x2 = 0.6	2.21	2.56	2.9	3.34	3.6	3.91	4.59	4.86	5.43
x2 = 0.7	3.86	4.61	5.18	5.66	6.46	7.67	8.39	9.2	10.5
x2 = 0.8	6.88	7.72	8.59	9.69	10.7	11.8	13.1	14.6	16.1
x2 = 0.9	12.3	13.1	14.5	16.1	17.4	19	20.6	22.3	23.9

Cl.NC(C=O)C(O)C(O)C(O)CO (centres undefined) + O + CO
solubility (g/100 g solution)
Conditions	283.15 K	288.15 K	293.15 K	298.15 K	303.15 K	308.15 K	313.15 K	318.15 K	323.15 K
x2 = 0.2	0.992	1.03	1.13	1.23	1.35	1.48	1.55	1.7	1.83
x2 = 0.4	2.16	2.53	2.73	2.95	3.19	3.51	3.82	4.32	4.72
x2 = 0.6	4.73	5.53	6	6.76	7.4	8.23	9.01	10	10.9
x2 = 0.8	10.2	11.5	12.8	13.9	15.2	16.7	18.1	19.7	21.3
x2 = 0.9	15.2	16.6	18	19.7	21	22.9	24.2	25.8	27.9
